# Test results published in patent US20020137781A1, “Preparation and use of enantiomer-pure 2,4-disubstituted oxazolines” (priority 1999, published 2002).
# Columns and labels:
# Blattella germanica = assay: Effect against Blattella germanica; format: in vivo; conditions: application rate of 2 g/m^2, nymphs exposed 2 hours, evaluated after 48 hours
# Experimental: Sufficient acetonic solution (0.1%) of the active ingredient is added to a Petri dish for the quantity thereof to correspond to an application rate of 2 g/m^2. When the solvent has evaporated, 20 nymphs of Blattella germanica (last nymph stage) are placed in the dish and exposed to the action of the test substance for 2 hours. The nymphs are then anaesthetised with CO2, added to a fresh Petri dish and kept in the dark at 25° and 50 to 70% humidity. After 48 hours, the insecticidal effect is evaluated by determining the mortality rate.
# Anthonomus grandis = assay: Effect against Anthonomus grandis; format: in vivo; conditions: 400 ppm spray on cotton plants, adults, three days
# Experimental: Young cotton plants are sprayed with an aqueous emulsion spray mixture containing 400 ppm of active ingredient. After the spray coating has dried on, the cotton plants are colonised with 10 adult Anthonomus grandis and placed in a plastic container. Three days later they are evaluated. The percentage reduction of the population and of the feeding damage (% response) is determined by comparing the total number of dead beetles and the feeding damage on the treated plants with those on the untreated plants.
# Aonidiella aurantii = assay: Effect against Aonidiella aurantii; format: in vivo; conditions: 400 ppm, potato tubers immersed, 10 to 12 weeks
# Experimental: Potato tubers are colonised with crawlers of Aonidiella aurantii. After about 2 weeks, the potatoes are immersed in an aqueous emulsion or suspension spray mixture containing 400 ppm of active ingredient. After the tubers have dried off, they are incubated in a plastic container. Evaluation is effected 10 to 12 weeks later by comparing the survival rate of the crawlers of the first secondary generation of the treated population with that of untreated control batches.
# Tetranychus urticae = assay: Effect against Tetranychus urticae; format: in vivo; conditions: 400 ppm spray on bean plants, mixed population, 6 days at 25° C.
# Experimental: Young bean plants are colonised with a mixed population of Tetranychus urticae and, one day later, are sprayed with an aqueous emulsion spray mixture containing 400 ppm of active ingredient. The plants are subsequently incubated for 6 days at 25° C. and then evaluated. The percentage reduction of the population (% response) is determined by comparing the total number of dead eggs, larvae, and adults on the treated plants with those on the untreated plants.
# Nilaparvata lugens = assay: Effect against Nilaparvata lugens; format: in vivo; conditions: 400 ppm spray on rice plants, second and third instar larvae, 21 days
# Experimental: Rice plants are sprayed with an aqueous emulsion spray mixture containing 400 ppm of active ingredient. After the spray coating has dried on, the rice plants are colonised with second and third instar larvae of plant and leaf-hoppers. 21 days later they are evaluated. The percentage reduction of the population (% response) is determined by comparing the number of surviving plant and leaf-hoppers on the treated plants with those on the untreated plants.
# Heliothis virescens = assay: Ovicidal/larvicidal effect on Heliothis virescens; format: in vivo; conditions: 400 ppm spray on eggs laid on cotton, after 8 days
# Excerpt: Eggs of Heliothis virescens laid on cotton are sprayed with an aqueous emulsion spray mixture containing 400 ppm of active ingredient. After 8 days, the percentage hatching rate of the eggs and the survival rate of the caterpillars are compared with those for untreated controls (% reduction of population)
# Spodoptera littoralis = assay: Effect on Spodoptera littoralis; format: in vivo; conditions: 400 ppm spray on soybean plants, third-instar larvae, three days
# Experimental: Young soybean plants are sprayed with an aqueous emulsion spray mixture containing 400 ppm of active ingredient. After the spray deposit has dried, the plants are colonised with 10 third-instar larvae of Spodoptera littoralis and placed in a plastic container. Three days later they are evaluated. The percentage reduction of the population and of the feeding damage (% response) is determined by comparing the total number of dead caterpillars and the feeding damage on the treated plants with those on the untreated plants.
# [1] = tested on: Musca domestica of an OP-resistant strain; assay: Effect against Musca domestica; format: in vivo; conditions: 250 ppm in sugar cube, 25° C., after 24 hours, read-out: mortality rate (response)
# Experimental: A sugar cube is treated with a solution of the test substance in such a way that the concentration of test substance in the sugar, after drying over night, is 250 ppm. The cube treated in this way is placed on an aluminium dish with wet cottonwool and 10 adult Musca domestica of an OP-resistant strain. It is covered with a beaker and incubated at 25° C. The mortality rate is determined after 24 hours.
# Ctenocephalides felis = assay: In vitro effect on eggs, larvae, or pupae of the cat flea Ctenocephalides felis; conditions: 15, 1.5, 0.15 and 0.015 ppm test solutions, after 21 days
# Experimental: Acetonic test solutions are prepared containing test substances in concentrations of 15, 1.5, 0.15 and 0.015 ppm. 9.9 ml of each test solution is mixed with 14.85 g of culture medium for flea larvae and dried for about 12 hours. The slightly clumped, dry culture medium is mechanically pulverized again until it is homogeneous and free-flowing. It is then transferred to bottles for the breeding of fleas. To each bottle, 100 to 200 flea eggs are added, the bottles are loosely closed with a wad of cottonwool and placed in an incubator at 25 to 26° C. and a relative humidity of about 60%. After 21 days, the effect of the test substances in the different concentrations is evaluated and the lowest effective concentration determined using a stereomicroscope. The activity is evaluated on the basis of the hatching rate, larva development, pupation, and the hatching of young fleas. Enantiomers A of formula (I) show a pronounced effect in this test.
smiles,measurement,setting,value
"Fc1cccc(F)c1C1=NC(c2ccc(-c3ccc(C(F)(F)F)cc3)cc2)CO1 (single isomer, unassigned) [1.1, 2-(2,6-difluoro-phenyl)-4-(4′-trifluoromethylbiphenyl-4-yl)-4,5-dihydro-oxazole]",mortality rate (response),Blattella germanica,more than 80%
same,percentage reduction of the population and of the feeding damage (% response),Anthonomus grandis,more than 80%
same,response (survival rate of the crawlers of the first secondary generation vs untreated),Aonidiella aurantii,more than 80%
same,percentage reduction of the population (% response),Tetranychus urticae,more than 80%
same,percentage reduction of the population (% response),Nilaparvata lugens,more than 80%
same,% reduction of population (hatching rate of eggs and survival rate of caterpillars),Heliothis virescens,more than 80%
same,percentage reduction of the population and of the feeding damage (% response),Spodoptera littoralis,more than 80%
same,mortality at 250 ppm,[1],> 80%
same,"effect on hatching rate, larva development, pupation and hatching of young fleas (in words)",Ctenocephalides felis,most active test substance
